Assay results from patent US9556231B2, “Beta-hairpin peptidomimetics as CXC4 antagonists” (POLYPHOR AG, priority 2011, dated 2017).
Like-named read-outs stand apart in the source and are kept apart here. Bridge positions count the residues as written; N and C are the ends. Square brackets hold non-standard residues; d marks the D form. Peptide text beside a SMILES is read from it. Lys(iPr) = CC(C)NCCCC[C@H](N)C(=O)O; Orn(iPr) = CC(C)NCCC[C@H](N)C(=O)O; Dab = NCC[C@H](N)C(=O)O

Assays:
[1] = Cytotoxicity, MTT reduction assay, HELA cells; type: cell-based; settings: human
Protocol: (§1) Namalwa cells (CXCR4 natively expressing non-adherent cells, ATCC CRL-1432) were cultured in RPMI1640 plus 10% FBS, and pen/strept. HELA cells were maintained in RPMI1640 plus 10% FBS, pen/strept and 2 mM L-glutamine. Cos-7 cells were grown in DMEM medium with […] glucose supplemented with 10% FCS, pen/strept and 2 mM L-glutamine. All cell lines were grown at 37° C. at 5% CO2. Cell media, media supplements, PBS-buffer, HEPES, antibiotic/antimycotic, pen/strept, non essential amino acid, L-glutamine, β-mercaptoethanol and sera were purchased from Gibco (Pailsey, UK). All fine chemicals were supplied by Merck (Darmstadt, Germany).
(§2) The cytotoxicity of the peptides to HELA cells (Acc57) and COS-7 cells (CRL-1651) was determined using the MTT reduction assay (T. Mossman, J. Immunol. Meth. 1983, 65, 55-63; M. V. Berridge, A. S. Tan, Arch. Biochem. Biophys. 1993, 303, 474-482). Briefly, the method was as follows: 4000 HELA cells/well and 3400 COS-7 cells/well were seeded and grown in 96-well microtiter plates for 24 h at 37° C. at 5% CO2. Thereafter, time zero (Tz) was determined by MTT reduction (see below). The supernatant of the remaining wells was discarded, and fresh medium and compounds in serial dilutions (12.5, 25 and 50 μM, triplicates; 0 μM, blank) were pipetted into the wells. After incubation of the cells for 48 h at 37° C. at 5% CO2 the supernatant was discarded again and 100 μL MTT reagent (0.5 mg/mL in RPMI1640 and DMEM, respectively)/well was added. Following incubation at 37° C. for 2-4 h the media were aspirated and the cells were spiked (100 μL isopropanol/well). The absorbance of the solubilized formazan was measured at 595 nm (OD595peptide). For each concentration averages were calculated from triplicates. The percentage of growth was calculated as follows: (OD595peptide−OD595Tz)/(OD595blank−OD595Tz)×100%. The GI50 (Growth Inhibition) concentrations were calculated for each peptide by using a trend line function for the concentrations (50, 25, 12.5 and 0 μM), the corresponding percentages and the value 50, (=TREND (C50:C0,%50:%0,50).

[2] = Cytotoxicity, MTT reduction assay, COS-7 cells; type: cell-based; settings: African green monkey
Protocol: as §1, §2

[3] = Plasma stability, human plasma; type: in vitro ADME; settings: 37° C., 1440 min, read-out: human pl. cpd left at 1440 min
Protocol: (§3) The stability of the peptides in human and mouse plasma was determined by applying the following method: 346.5 μL/deep well of freshly thawed human plasma (Basler Blutspende-dienst) and mouse plasma (Harlan Sera-Lab, UK), respectively, were spiked with 3.5 μL/well of compound dissolved in DMSO/H2O (90/10 [v/v], 1 mM, triplicate) and incubated at 37° C. At t=0, 15, 30, 60, 120, 240 and 1440 min aliquots of 50 μL were transferred to filtration plate wells containing 150 μL/well of 2% formic acid in acetonitrile. Following shaking for 2 min the occurred suspensions were filtrated by vacuum. 100 μL of each filtrate were transferred to a propylene microtiter plate and dried under N2. The residual solids were reconstituted by adding 100 μL/well of water/acetonitrile, 95/5 (v/v)+0.2% formic acid and analyzed by LC/MS as follows: Column: Waters, XBridge C18, mobile phases: (A) water+0.1% formic acid and (B) acetonitrile/water, 95/5 (v/v)+0.1% formic acid, gradient: 5%-100% (B) in 1.8 minutes, electrospray ionization, MRM detection (triple quadrupole). The peak areas were determined and triplicate values are averaged. The stability is expressed in percent of the initial value at t=0·(tx/t0×100). By using the TREND function of EXCEL (Microsoft Office 2003) T1/2 were determined.

[4] = Plasma stability, mouse plasma; type: in vitro ADME; settings: 37° C.; for remaining at 24 h / remaining at 24 h, 10 μM: 1440 min, read-out: mouse pl. cpd left at 1440 min; for mouse pl. T1/2: up to 1440 min
Protocol: as §3

Plasma protein binding = type: in vitro ADME; settings: for fraction unbound: human, plasma; for fraction unbound at 1 h, 10 μM: human plasma
Protocol: 495 μL aliquots of human plasma (Basler Blutspendedienst) as well as 495 μL aliquots of PBS were placed in individual deepwells of a polypropylene plate (Greiner) and spiked each with 5 μL of 1 mM solutions of peptides in 90% DMSO. After shaking the plate for 2 min at 600 rpm 150 μL aliquots of the plasma/peptide mixtures were transferred in triplicates to the polypropylene filter plate (10 kDa, Millipore) whereas 150 μL aliquots of the PBS/peptide mixtures were transferred either to the individual wells of the filter plate (filtered controls) or directly into the individual wells of the receiving plate (Greiner) (non-filtered controls). The plate sandwich consisting of filter and receiving plate was incubated for 1 h at 37° C. and subsequently centrifuged at 3220 g for 2 h at 15° C. The filtrates in the receiving plate were analysed by LC/MS as follows: Column: Waters, XBridge C18, mobile phases: (A) water+0.1% formic acid and (B) acetonitrile/water, 95/5 (v/v)+0.1% formic acid, gradient: 5%-100% (B) in 1.8 min, electrospray ionization, MRM detection (triple quadrupole). The peak areas were determined and triplicate values are averaged. The binding is expressed in percent of the filtered and non-filtered controls by 100−(100×T1h/Tctr). Finally the average of these values is calculated.

[5] = ultrafiltration 10 kDa, read-out: Plasma protein binding (converted)
[6] = MTT, 48 h, up to 50 μM, read-out: Cytotoxicity Hela Cells GI50
[7] = MTT, 48 h, up to 50 μM, read-out: Cytotoxicity Cos-7 Cells GI50

Structure (SMILES): CC(C)NCCCC[C@@H]1NC(=O)[C@H](CCC(N)=O)NC(=O)[C@H](Cc2ccc(O)cc2)NC(=O)[C@@H]2CSSC[C@H](NC(=O)[C@H](Cc3ccc(O)cc3)NC(=O)[C@H](Cc3c[nH]cn3)NC(=O)[C@H](Cc3ccc(O)cc3)NC(=O)[C@@H]3CCCN3C(=O)[C@H]3CCCN3C1=O)C(=O)N[C@@H](CO)C(=O)N[C@@H](C)C(=O)N1CCC[C@@H]1C(=O)N[C@@H](CCCNC(C)C)C(=O)N[C@@H](CCCNC(=N)N)C(=O)N[C@@H](Cc1ccc(O)cc1)C(=O)N2 [Ex. 1, cyclo(-Tyr^1-His^2-Tyr^3-Cys^4-Ser^5-Ala^6-^DPro^7-Orn(iPr)^8-Arg^9-Tyr^10-Cys^11-Tyr^12-Gln^13-Lys(iPr)^14-^DPro^15-Pro^16-) disulfide bond between Cys^4 and Cys^11] (cyclo(YHYCSA[dP][Orn(iPr)]RYCYQ[Lys(iPr)][dP]P); disulfide 4-11)
- GI50 at 48 h [1]: > 50 µM
- GI50 at 48 h [2]: > 50 µM
- remaining at 24 h [3]: 77%
- remaining at 24 h [4]: 100%
- mouse pl. T1/2 [4]: 24 h
- fraction unbound (Plasma protein binding; read-out: Fraction unbound, fu): 0.7
- fraction unbound (Plasma protein binding; [5]): 0.7

Structure (SMILES): COc1ccc(C[C@@H]2NC(=O)[C@H](Cc3c[nH]cn3)NC(=O)[C@H](Cc3ccc(O)cc3)NC(=O)[C@@H]3CCCN3C(=O)[C@H]3CCCN3C(=O)[C@H](CCCCNC(C)C)NC(=O)[C@H](CCC(N)=O)NC(=O)[C@H](Cc3ccc(O)cc3)NC(=O)[C@@H]3CSSC[C@H](NC2=O)C(=O)N[C@@H](CO)C(=O)N[C@@H](C)C(=O)N2CCC[C@@H]2C(=O)N[C@@H](CCCNC(C)C)C(=O)N[C@@H](CCCNC(=N)N)C(=O)N[C@@H](Cc2ccc(O)cc2)C(=O)N3)cc1 [Ex. 2, cyclo(-Tyr^1-His^2-Tyr(Me)^3-Cys^4-Ser^5-Ala^6-^DPro^7-Orn(iPr)^8-Arg^9-Tyr^10-Cys^11-Tyr^12-Gln^13-Lys(iPr)^14-^DPro^15-Pro^16-), disulfide bond between Cys^4 and Cys^11] (cyclo(YHY(Me)CSA[dP][Orn(iPr)]RYCYQ[Lys(iPr)][dP]P); disulfide 4-11)
- GI50 at 48 h [1]: > 41 µM
- GI50 at 48 h [2]: > 50 µM
- remaining at 24 h [3]: 100%
- remaining at 24 h [4]: 100%
- mouse pl. T1/2 [4]: 24 h
- fraction unbound (Plasma protein binding; read-out: Fraction unbound, fu): 0.52
- fraction unbound (Plasma protein binding; [5]): 0.52

Structure (SMILES): CC(C)NCCCC[C@@H]1NC(=O)[C@H](CCC(N)=O)NC(=O)[C@H](Cc2ccc(O)cc2)NC(=O)[C@@H]2CSSC[C@H](NC(=O)[C@H](C)NC(=O)[C@H](Cc3c[nH]cn3)NC(=O)[C@H](Cc3ccc(O)cc3)NC(=O)[C@@H]3CCCN3C(=O)[C@H]3CCCN3C1=O)C(=O)N[C@@H](CO)C(=O)N[C@@H](C)C(=O)N[C@H](Cc1ccc(O)cc1)C(=O)N[C@@H](CCN)C(=O)N[C@@H](CCCNC(=N)N)C(=O)N[C@@H](Cc1ccc(O)cc1)C(=O)N2 [Ex. 3, cyclo(-Tyr^1-His^2-Ala^3-Cys^4-Ser^5-Ala^6-^DTyr^7-Dab^8-Arg^9-Tyr^10-Cys^11-Tyr^12-Gln^13-Lys(iPr)^14-^DPro^15-Pro^16-), disulfide bond between Cys^4 and Cys^11] (cyclo(YHACSA[dY][Dab]RYCYQ[Lys(iPr)][dP]P); disulfide 4-11)
- GI50 at 48 h [1, 6]: > 50 µM
- GI50 at 48 h [2, 7]: > 50 µM
- remaining at 24 h, 10 μM [3]: 100%
- remaining at 24 h, 10 μM [4]: 98%
- mouse pl. T1/2 [4]: 24 h
- fraction unbound at 1 h, 10 μM (Plasma protein binding; ultrafiltration 10 kDa): 0.52

Structure (SMILES): COc1ccc(C[C@H]2NC(=O)[C@H](C)NC(=O)[C@H](CO)NC(=O)[C@@H]3CSSC[C@H](NC(=O)[C@H](Cc4ccc(O)cc4)NC(=O)[C@H](CCCNC(=N)N)NC(=O)[C@H](CCCNC(C)C)NC2=O)C(=O)N[C@@H](Cc2ccc(O)cc2)C(=O)N[C@@H](CCC(N)=O)C(=O)N[C@@H](CCCCNC(C)C)C(=O)N2CCC[C@@H]2C(=O)N2CCC[C@H]2C(=O)N[C@@H](Cc2ccc(O)cc2)C(=O)N[C@@H](Cc2c[nH]cn2)C(=O)N[C@@H](C)C(=O)N3)cc1 [Ex. 4, cyclo(-Tyr^1-His^2-Ala^3-Cys^4-Ser^5-Ala^6-^DTyr(Me)^7-Orn(iPr)^8-Arg^9-Tyr^10-Cys^11-Tyr^12-Gln^13-Lys(iPr)^14-^DPro^15-Pro^16-), disulfide bond between Cys^4 and Cys^11] (cyclo(YHACSA[dY](Me)[Orn(iPr)]RYCYQ[Lys(iPr)][dP]P); disulfide 4-11)
- GI50 at 48 h [1]: > 50 µM
- GI50 at 48 h [2]: > 50 µM
- remaining at 24 h [3]: 94%
- remaining at 24 h [4]: 60%
- mouse pl. T1/2 [4]: 24 h
- fraction unbound (Plasma protein binding; read-out: Fraction unbound, fu): 0.44
- fraction unbound (Plasma protein binding; [5]): 0.44

Structure (SMILES): CC(C)NCCCC[C@@H]1NC(=O)[C@H](CCC(N)=O)NC(=O)[C@H](Cc2ccc(O)cc2)NC(=O)[C@@H]2CSSC[C@H](NC(=O)[C@H](Cc3ccc(O)cc3)NC(=O)[C@H](Cc3c[nH]cn3)NC(=O)[C@H](Cc3ccc(O)cc3)NC(=O)[C@@H]3CCCN3C(=O)[C@H]3CCCN3C1=O)C(=O)N[C@@H](CO)C(=O)N[C@@H](C)C(=O)N[C@H](Cc1ccc(O)cc1)C(=O)N[C@@H](CCCNC(C)C)C(=O)N[C@@H](CCCNC(=N)N)C(=O)N[C@@H](Cc1ccc(O)cc1)C(=O)N2 [Ex. 5, cyclo(-Tyr^1-His^2-Tyr^3-Cys^4-Ser^5-Ala^6-^DTyr^7-Orn(iPr)^8-Arg^9-Tyr^10-Cys^11-Tyr^12-Gln^13-Lys(iPr)^14-^DPro^15-Pro^16-), disulfide bond between Cys^4 and Cys^11] (cyclo(YHYCSA[dY][Orn(iPr)]RYCYQ[Lys(iPr)][dP]P); disulfide 4-11)
- GI50 at 48 h [1, 6]: > 50 µM
- GI50 at 48 h [2, 7]: > 50 µM
- remaining at 24 h, 10 μM [3]: 92%
- remaining at 24 h, 10 μM [4]: 81%
- mouse pl. T1/2 [4]: 24 h
- fraction unbound at 1 h, 10 μM (Plasma protein binding; ultrafiltration 10 kDa): 0.46
